Assay results: ChEMBL document CHEMBL1133765, “QSAR model for drug human oral bioavailability” (J Med Chem, 2000)

Key:
physchem = conditions: octanol/water
[1] = octanol/water
clinical = conditions: human, in vivo, po

CC(C)(C)NC(=O)C1CC[C@H]2[C@]3(C)CC[C@H]4NC(=O)C=C[C@]4(C)[C@H]3CC[C@]12C (stereo not given in full)
logD (physchem; pH 6.5, logD): 3.03 | delta logD [1]: 0 | bioavailability (clinical; F): 79%

CO/C(O)=C1\C(C)=NC(C)=C(C(=O)OCC(C)C)C1c1ccccc1[N+](=O)[O-] (stereo not given)
logD (physchem; pH 6.5, logD): 1.58 | delta logD [1]: 0 | bioavailability (clinical; F): < 20%

CN(C)CCC=C1c2ccccc2CCc2ccccc21 [AMITRIPTYLINE]
logD (physchem; pH 6.5): 2.14 | delta logD [1]: -0.9 | bioavailability (clinical): 49%

CC(=O)Oc1ccccc1C(=O)O [ASPIRIN]
logD (physchem; pH 6.5, logD): -1.81 | delta logD [1]: 0.9 | bioavailability (clinical; F): 79%

C[C@H]1C[C@H]2[C@@H]3CCC4=CC(=O)C=C[C@]4(C)[C@@]3(F)[C@@H](O)C[C@]2(C)[C@@]1(O)C(=O)CO [BETAMETHASONE]
logD (physchem; pH 6.5, logD): 1.94 | delta logD [1]: 0

Cc1ncsc1CCCl [CLOMETHIAZOLE]
logD (physchem; pH 6.5): 2.12 | delta logD [1]: 0 | bioavailability (clinical): < 20%

O=C1CN=C(c2ccccc2Cl)c2cc([N+](=O)[O-])ccc2N1 [CLONAZEPAM]
logD (physchem; pH 6.5): 2.41 | delta logD [1]: 0 | bioavailability (clinical): > 80%

CN1CCN(C2=Nc3cc(Cl)ccc3Nc3ccccc32)CC1 [CLOZAPINE]
logD (physchem; pH 6.5): 1.81 | delta logD [1]: -0.81 | bioavailability (clinical): 79%

O=P1(N(CCCl)CCCl)NCCCO1 (stereo not given) [CYCLOPHOSPHAMIDE ANHYDROUS]
logD (physchem; pH 6.5): 0.63 | delta logD [1]: 0 | bioavailability (clinical): > 80%

C[C@@H]1C[C@H]2[C@@H]3CCC4=CC(=O)C=C[C@]4(C)[C@@]3(F)[C@@H](O)C[C@]2(C)[C@@]1(O)C(=O)CO [DEXAMETHASONE]
logD (physchem; pH 6.5, logD): 1.83 | delta logD [1]: 0

CCCCCc1cc(O)c2c(c1)OC(C)(C)[C@@H]1CCC(C)=C[C@@H]21 [DRONABINOL]
logD (physchem; pH 6.5): 4.49 | delta logD [1]: 0 | bioavailability (clinical): < 20%

C#C[C@]1(O)CC[C@H]2[C@@H]3CCc4cc(O)ccc4[C@H]3CC[C@@]21C [ETHINYL ESTRADIOL]
logD (physchem; pH 6.5, logD): 3.67 | delta logD [1]: 0 | bioavailability (clinical; F): 49%

CCC1(C)CC(=O)NC1=O (stereo not given) [ETHOSUXIMIDE]
logD (physchem; pH 6.5): -0.33 | delta logD [1]: 0 | bioavailability (clinical): > 80%

Nc1nc(=O)[nH]cc1F [FLUCYTOSINE]
logD (physchem; pH 6.5, logD): -1.65 | delta logD [1]: 0 | bioavailability (clinical; F): > 80%

O=C(CCCN1CCC(O)(c2ccc(Cl)cc2)CC1)c1ccc(F)cc1 [HALOPERIDOL]
logD (physchem; pH 6.5, logD): 1.42 | delta logD [1]: -0.86 | bioavailability (clinical; F): 79%

NNC(=O)c1ccncc1 [ISONIAZID]
logD (physchem; pH 6.5, logD): -0.7 | delta logD [1]: 0 | bioavailability (clinical; F): > 80%

C[C@H]1C[C@@H]2[C@H]([C@@H](O)C[C@@]3(C)[C@H]2CC[C@]3(O)C(=O)CO)[C@@]2(C)C=CC(=O)C=C12 [METHYLPREDNISOLONE]
logD (physchem; pH 6.5, logD): 1.66 | delta logD [1]: 0 | bioavailability (clinical; F): > 80%

CN1CCN2c3ccccc3Cc3ccccc3C2C1 (stereo not given) [MIANSERIN]
logD (physchem; pH 6.5, logD): 2.78 | delta logD [1]: -0.52 | bioavailability (clinical; F): 49%

C=CCN1CC[C@]23c4c5ccc(O)c4O[C@H]2C(=O)CC[C@@]3(O)[C@H]1C5 [NALOXONE]
logD (physchem; pH 6.5): 0.64 | delta logD [1]: -0.81 | bioavailability (clinical): < 20%

COC(=O)C1=C(C#N)NC(C)=C(C(=O)OC(C)C)C1c1cccc([N+](=O)[O-])c1 (stereo not given) [NILVADIPINE]
logD (physchem; pH 6.5, logD): 1.99 | delta logD [1]: 0 | bioavailability (clinical; F): < 20%

COCCOC(=O)C1=C(C)NC(C)=C(C(=O)OC(C)C)C1c1cccc([N+](=O)[O-])c1 (stereo not given) [NIMODIPINE]
logD (physchem; pH 6.5, logD): 0.73 | delta logD [1]: 0 | bioavailability (clinical; F): < 20%

O=C1CN=C(c2ccccc2)c2cc([N+](=O)[O-])ccc2N1 [NITRAZEPAM]
logD (physchem; pH 6.5): 2.25 | delta logD [1]: 0 | bioavailability (clinical): 79%

O=C1CN(/N=C/c2ccc([N+](=O)[O-])o2)C(=O)N1 [NITROFURANTOIN]
logD (physchem; pH 6.5, logD): -0.47 | delta logD [1]: 0 | bioavailability (clinical; F): > 80%

C#C[C@]1(O)CC[C@H]2[C@@H]3CCC4=CC(=O)CC[C@@H]4[C@H]3CC[C@@]21C [NORETHINDRONE]
logD (physchem; pH 6.5, logD): 2.97 | delta logD [1]: 0 | bioavailability (clinical; F): 79%
